# Measurements from US11753407B2, “Compounds for treating spinal muscular atrophy” (PTC Therapeutics, Inc., priority 2012, dated 2023).
# Legend:
# [1] = tested on: SMN2 minigene mRNA (SMN2-A minigene) in HEK293H cells; assay: SMN2 minigene mRNA splicing RT-qPCR assay in cultured cells; format: cell-based, human; settings: Homo sapiens, HEK293-H; concentration increasing full length SMN2 mRNA 1.5-fold relative to vehicle-treated cells; HEK293H cells with SMN2-A minigene, 24 hours, 7-point concentration data; read-out: EC1.5x for production of full length SMN2 mRNA
# In short: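 Read-out: minigene-specific full-length (exon 7-included) SMN2 mRNA by one-step multiplex RT-qPCR, normalized to GAPDH and divided by vehicle-treated level. Stable SMN2-A minigene HEK293H cells, 24 h compound exposure, 7 concentrations in duplicate. EC1.5× = concentration raising FL mRNA 1.5-fold.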
# [2] = tested on: Smn protein in SMA patient fibroblast cells (GM03813); assay: Smn protein assay in cultured cells (SMN HTRF); format: cell-based, human; settings: SMA patient fibroblast cells, 48 hours; for EC1.5x for Smn protein expression: 7-point concentration curve, SMN HTRF, concentration producing 1.5 times Smn protein vs DMSO vehicle control; for maximum fold (Fold) increase of Smn protein: 7-point concentration data, fold relative to vehicle control
# In short: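 Read-out: HTRF 665/620 nm ratio, blank-subtracted as ΔF, then expressed as fold over DMSO vehicle. Fibroblasts from SMA patients were exposed to compounds for 48 h (7 points, 3.16-fold steps, triplicates). Values are EC1.5× and maximum fold Smn increase.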
smiles,measurement,setting,value
"CCc1nc(C)cn2nc(-c3cc(=O)n4cc(N5CCN(C6COC6)CC5)ccc4n3)cc12 [Compound 622, 2-(4-ethyl-6-methylpyrazolo[1,5-a]pyrazin-2-yl)-7-[4-(oxetan-3-yl)piperazin-1-yl]-4H-pyrido[1,2-a]pyrimidin-4-one]",EC (1.5-fold increase),[1],1 to 3 µM
same,melting point,,205 to 208 °C
same,EC1.5x for Smn protein expression,[2],** (an EC1.5× between >1 μM and ≤3 μM is indicated by two stars (**))
same,maximum fold (Fold) increase of Smn protein,[2],**** (a fold increase between >1.5 and ≤1.65 is indicated by four stars (****))
"CCN1CCC2CN(c3ccc4nc(-c5cc6c(C)nc(C)cn6n5)cc(=O)n4c3)CCC21 (stereo not shown) [Compound 623, 2-(4,6-dimethylpyrazolo[1,5-a]pyrazin-2-yl)-7-(1-ethyloctahydro-5H-pyrrolo[3,2-c]pyridin-5-yl)-4H-pyrido[1,2-a]pyrimidin-4-one]",EC (1.5-fold increase),[1],< 0.1 µM
same,melting point,,176 to 178 °C
same,EC1.5x for Smn protein expression,[2],**** (an EC1.5x≤0.3 μM is indicated by four stars (****))
same,maximum fold (Fold) increase of Smn protein,[2],***** (a fold increase >1.65 is indicated by five stars (*****))
"Cc1cn2nc(-c3cc(=O)n4cc(N5CCC6C(CCN6CCO)C5)ccc4n3)cc2c(C)n1 (stereo not shown) [Compound 624, 2-(4,6-dimethylpyrazolo[1,5-a]pyrazin-2-yl)-7-[1-(2-hydroxyethyl)octahydro-5H-pyrrolo[3,2-c]pyridin-5-yl]-4H-pyrido[1,2-a]pyrimidin-4-one]",EC (1.5-fold increase),[1],< 0.1 µM
same,melting point,,184 to 187 °C
same,EC1.5x for Smn protein expression,[2],**** (an EC1.5x≤0.3 μM is indicated by four stars (****))
same,maximum fold (Fold) increase of Smn protein,[2],***** (a fold increase >1.65 is indicated by five stars (*****))
"Cc1cn2cc(-c3cc(=O)n4cc(C5CCN(C(C)C)CC5)ncc4n3)ccc2n1 [Compound 627, 2-(2-methylimidazo[1,2-a]pyridin-6-yl)-7-[1-(propan-2-yl)piperidin-4-yl]-4H-pyrazino[1,2-a]pyrimidin-4-one]",EC (1.5-fold increase),[1],0.1 to 0.3 µM
same,melting point,,229 to 231 °C
same,EC1.5x for Smn protein expression,[2],** (an EC1.5× between >1 μM and ≤3 μM is indicated by two stars (**))
same,maximum fold (Fold) increase of Smn protein,[2],**** (a fold increase between >1.5 and ≤1.65 is indicated by four stars (****))
"Cc1cn2cc(-c3cc(=O)n4cc(C5CCN(C6CCC6)CC5)ncc4n3)ccc2n1 [Compound 628, 7-(1-cyclobutylpiperidin-4-yl)-2-(2-methylimidazo[1,2-a]pyridin-6-yl)-4H-pyrazino[1,2-a]pyrimidin-4-one]",EC (1.5-fold increase),[1],0.3 to 1 µM
same,melting point,,249 to 251 °C
same,EC1.5x for Smn protein expression,[2],* (An EC1.5× for Smn protein expression between >3 μM and ≤10 μM is indicated by one star (*))
same,maximum fold (Fold) increase of Smn protein,[2],**** (a fold increase between >1.5 and ≤1.65 is indicated by four stars (****))
"CCc1nc(C)cn2nc(-c3cc(=O)n4cc(N5CCN(CC)[C@H](C)C5)ccc4n3)cc12 [Compound 630, 7-[(3R)-4-ethyl-3-methylpiperazin-1-yl]-2-(4-ethyl-6-methylpyrazolo[1,5-a]pyrazin-2-yl)-4H-pyrido[1,2-a]pyrimidin-4-one]",EC (1.5-fold increase),[1],< 0.1 µM
same,melting point,,256 to 258 °C
same,EC1.5x for Smn protein expression,[2],**** (an EC1.5x≤0.3 μM is indicated by four stars (****))
same,maximum fold (Fold) increase of Smn protein,[2],***** (a fold increase >1.65 is indicated by five stars (*****))
"CCCN1CCN(c2ccc3nc(-c4cc5c(CC)nc(C)cn5n4)cc(=O)n3c2)C[C@H]1C [Compound 631, 2-(4-ethyl-6-methylpyrazolo[1,5-a]pyrazin-2-yl)-7-[(3R)-3-methyl-4-propylpiperazin-1-yl]-4H-pyrido[1,2-a]pyrimidin-4-one]",EC (1.5-fold increase),[1],0.1 to 0.3 µM
same,melting point,,243 to 245 °C
same,EC1.5x for Smn protein expression,[2],*** (an EC1.5× between >0.3 μM and ≤1 μM is indicated by three stars (***))
same,maximum fold (Fold) increase of Smn protein,[2],***** (a fold increase >1.65 is indicated by five stars (*****))
